Reference: article PMC11851430, “Workflow for E3 Ligase Ligand Validation for PROTAC Development” (ACS Chemical Biology, 2025)

Legend:
ABL1 = target: T1, ABL1 (Homo sapiens, UniProt P00519); assay: Kinobeads selectivity profiling; type: binding; conditions: Jurkat lysate, dose series given in nM, read-out: Kd (apparent dissociation constant, corrected for protein depletion)
T1 construct: endogenous in cells; host or cells: Jurkat (Clone E6.1) cell lysate
Method: Excitation and emission filters […]
curve. […] Measurements were
Kinobeads selectivity profiling of PROTACs
(Multiplexion, Heidelberg, Germany).
The cell lysate was ultracentrifuged and diluted
NaF, 1 mM DTT, protease inhibitors and phosphatase inhibitors to a final concentration of 5 mg/ml as determined by Bradford assay. For selectivity profiling of compounds the cell lysate (2.5 mg of total proteins per pulldown) was pre-incubated with increasing compound […]
µM) for 45 min at 4 °C in an end-over-end shaker. Subsequently, lysates were incubated with Kinobeads epsilon (17 µL settled beads) for 30 min at 4 °C. To assess the degree of protein depletion from the lysates by Kinobeads, the flow-through of the DMSO control was recovered […]
for a pulldown of pulldown experiment where the lysate was incubated a second time with fresh Kinobeads. Beads were washed in 3 steps with buffer containing 0.4%, 0.2% and no NP40.
Bound proteins were reduced with 50 mM DTT in 8 M Urea, 40 mM Tris-HCl pH 7.4 for 30 min at room temperature. After alkylation with 55 mM chloroacetamide (CAA), the Urea concentration was reduced to 1 – 2 M and proteins were digested using trypsin. Acidified peptides were desalted and concentrated using SepPak tC18 µEluation plates (Waters).
Samples were frozen, dried by vacuum centrifugation and stored at -20 °C.
LC-MS2 analysis. Peptides were measured on a Dionex Ultimate3000 nano HPLC coupled online to an Orbitrap Fusion Lumos (Thermo Fisher Scientific) mass spectrometer.
Peptides were dissolved in 0.1% formic acid and delivered to a trap column (ReproSil-pur C18-AQ, 5 μm, Dr. Maisch, 20 mm × 75 μm, self-packed) at a flow rate of 5 μL/min in LC solvent A (0.1 % formic acid).4 After 10 min of loading, peptides were transferred to an analytical column (ReproSil Gold C18-AQ, 3 μm, Dr. Maisch, 400 mm × 75 μm, self-packed) and separated using […]
acetonitrile) in LC solvent A.
The Orbitrap Fusion Lumos was operated as follows: positive polarity; spray voltage 2.1 kV, […]
A full-scan (MS1) was recorded from 360 to 1300 m/z with a resolution of 60,000 in the Orbitrap in profile mode. The MS1 AGC target was set to 4e5 and the maxIT was set to 50 ms, RF lens value was set to 50%. Based on the full scans, precursors were targeted for the MS/MS scans […]
intensity exceeded 2.5e4. The dynamic exclusion was set to 30 sec and exclude isotopes was switched on. The MS2 quadrupole isolation window was set to 1.7 m/z. Peptide fragmentation occurred in the ion routing multipole (IRM) by HCD with a fixed collision energy mode, the […]

[1] = target: T2, kinase protein levels in MCF-7 cells (Homo sapiens, UniProt A0A0U1RRE5); assay: TMT-labeled quantitative proteomics; type: cell-based; conditions: protein NBDY; MCF7; 1 µM; set2
T2 construct: endogenous in cells; host or cells: MCF-7
T2 sequence (A0A0U1RRE5 1-68): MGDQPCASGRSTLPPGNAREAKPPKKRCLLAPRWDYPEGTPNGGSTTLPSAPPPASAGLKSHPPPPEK

T1 sequence (P00519 whole entry): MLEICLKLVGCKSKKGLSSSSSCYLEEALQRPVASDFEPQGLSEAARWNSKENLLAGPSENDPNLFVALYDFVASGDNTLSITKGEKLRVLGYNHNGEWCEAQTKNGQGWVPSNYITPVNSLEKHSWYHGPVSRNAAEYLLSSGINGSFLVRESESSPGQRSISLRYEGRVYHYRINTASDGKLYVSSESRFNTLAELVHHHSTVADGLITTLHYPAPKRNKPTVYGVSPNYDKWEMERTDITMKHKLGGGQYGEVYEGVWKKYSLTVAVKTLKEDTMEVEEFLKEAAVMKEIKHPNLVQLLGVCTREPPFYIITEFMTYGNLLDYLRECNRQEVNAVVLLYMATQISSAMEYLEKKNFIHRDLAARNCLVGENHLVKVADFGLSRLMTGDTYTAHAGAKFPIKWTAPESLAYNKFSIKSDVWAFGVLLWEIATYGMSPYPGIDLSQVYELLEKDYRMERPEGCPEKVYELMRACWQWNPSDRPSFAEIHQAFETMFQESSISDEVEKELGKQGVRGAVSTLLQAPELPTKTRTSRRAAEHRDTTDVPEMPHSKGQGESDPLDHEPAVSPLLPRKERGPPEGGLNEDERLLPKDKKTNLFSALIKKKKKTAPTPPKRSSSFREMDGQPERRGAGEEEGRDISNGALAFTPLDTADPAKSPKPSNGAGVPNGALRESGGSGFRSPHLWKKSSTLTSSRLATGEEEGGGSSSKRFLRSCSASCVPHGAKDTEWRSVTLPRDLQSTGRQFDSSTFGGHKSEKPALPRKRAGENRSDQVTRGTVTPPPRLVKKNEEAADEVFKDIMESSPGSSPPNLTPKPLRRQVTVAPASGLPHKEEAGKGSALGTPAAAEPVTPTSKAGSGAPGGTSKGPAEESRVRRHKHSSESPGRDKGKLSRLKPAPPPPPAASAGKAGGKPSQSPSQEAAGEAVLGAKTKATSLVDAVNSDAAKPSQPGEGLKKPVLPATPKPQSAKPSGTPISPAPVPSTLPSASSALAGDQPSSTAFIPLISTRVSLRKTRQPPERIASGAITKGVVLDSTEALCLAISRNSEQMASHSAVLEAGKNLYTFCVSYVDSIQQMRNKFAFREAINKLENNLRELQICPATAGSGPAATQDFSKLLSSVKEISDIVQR

| Kd (ABL1) | P.Value (compound/DMSO) [1] | log2FC (compound/DMSO) [1] | SMILES |
| --- | --- | --- | --- |
| 2200 nM | – | – | CC(C)(C)OC(=O)NCCOCCOCCOCCOCCC(=O)N1CCN(c2cc(Nc3cc(C4CC4)[nH]n3)nc(Nc3ccc(CC#N)cc3)n2)CC1 [4-L] |
| 4950 nM | – | – | CC(C)(C)OC(=O)NCCCOCCOCCOCCCNC(=O)c1cc(Nc2cc(C3CC3)[nH]n2)nc(Nc2ccc(CC#N)cc2)n1 [5-L] |
| – | 0.05637 | -0.3112 | CC(=O)N[C@H](C(=O)N1C[C@H](O)C[C@H]1C(=O)NCc1ccc(-c2scnc2C)cc1OCCOCCOCCOCCNC(=O)c1cc(Nc2cc(C3CC3)[nH]n2)nc(Nc2ccc(CC#N)cc2)n1)C(C)(C)C [5-b] |
| – | 0.09776 | 0.2849 | CC(=O)N[C@H](C(=O)N1C[C@H](O)C[C@H]1C(=O)NCc1ccc(-c2scnc2C)cc1OCCOCCOCCOCCOCCC(=O)N1CCN(c2ccc(Nc3ncc(Cl)c(Nc4ccccc4C(N)=O)n3)cc2)CC1)C(C)(C)C [6-e] |
